Test results published in patent US11812753B2, “Solvent compositions promoting plant growth” (priority 2020, dated 2023).
Where two headings read alike, the source gives them in different places.

Assays:
[1] = from SDS of each solvent, cited from earlier work
[2] = Viscosity of solvent compositions (modular compact rheometer); assay type: physicochemical; conditions: solvent mixed with 0.1 wt % BHT and 4x PGR composition; 25° C.
Procedure: (§1) Propylene glycol was used as a control. The evaluated solvents, along with the mass of each PGR component and BHT, are shown below in Table 4. The density and viscosity of the solvent compositions were then determined. The density measurements were obtained using a DMA™ 4500, which was calibrated using 20° C. DI water. Viscosity was determined using a modular compact rheometer. Viscosity levels were measured at 25° C.

[3] = Two-week stability test of solvent / Warden CX mixtures (viscosity, density); assay type: physicochemical; conditions: mixture with Warden CX; for Post: Density / Post: Viscosity: after two weeks at 54° C., 4° C. and/or −10° C.; for Pre: Viscosity: before two-week stability test
Procedure: The same seven solvent compositions were then evaluated for their compatibility with Warden® CX, which is a combination of fungicide and insecticide (containing a proprietary solvent) formulated for soybean seed treatment and sold by Winfield® United. Specifically, 0.5 fl. oz./cwt. of each experimental solvent was added to 50 mL of Warden® CX. […] The mixtures were then evaluated for stability by placing the samples at 54° C., 4° C. and/or at −10° C. for a two-week period. Viscosity levels were measured before and after the two-week stability test, along with the post-test density levels, and the results shown below in Table 6.

[4] = Active ingredient loading of PGR components in solvent compositions by HPLC; assay type: physicochemical
Description: To understand if changing the active component loading rate would impact the biological performance of the PGR compositions, two solvent compositions, methoxy propanol and tetrahydrofuryl alcohol, were mixed with various PGR compositions (4×) selected for their favorable solubility properties, curing properties, and compatibility with Rhizobia. Propylene glycol was again included as a control sample, and each composition was mixed with BHT (4×). Citric acid was excluded from all samples. The weight percentage of each PGR component mixed with each solvent composition is shown below in Table 7.
The HPLC was performed using an Agilent 1260 device with a diode-array detector for active component quantification.
[…]. As shown, the deviation was less than 1% for each composition.

[5] = Density of solvent compositions (DMA 4500); assay type: physicochemical; conditions: solvent mixed with 0.1 wt % BHT and 4x PGR composition
Procedure: as §1

Post: Density [3] [g/mL] | Post: Viscosity [3] [cPa] | Pre: Viscosity [3] [cPa] | Molecule | Boiling Point [1] [C. °] | Density [1] [g/mL] | Flash Point [1] [C. °] | Solubility [1] | also measured
 |  |  | CC(=O)OCCCCCCC=O [Oxo-heptyl acetate] | 192 | 0.886 | 43 | Slightly | 
 |  |  | Ethyl hexanol | 185 | 0.833 | 75 |  | 
 |  |  | CC(=O)OCC(COC(C)=O)OC(C)=O [Glyceryl triacetate] | 259 | 1.158 | 148 | Soluble | Solubility ([1]; listed as glyceryl triacetate): soluble
1.1067 | 387.57 | 901.94 | CCCCOC(=O)C(C)O (centres unmarked) [Butyl lactate] | 186 | 0.984 | 69 | Slightly | Viscosity [2]: 5.0736 cPa
1.0486 | 45.06 | 112.48 | CCCCOCCOCCO [Diethylene glycol butyl ether] | 228 | 0.953 | 99 | Miscible | Viscosity [2]: 7.7338 cPa
 |  |  | CCCCCOC(C)=O [Amyl Acetate] | 149 | 0.87 | 40 | Insoluble | Viscosity [1]: 1.58 cP
 |  |  | CCCCC(CC)COC(=O)C(C)O (centres unmarked) [Lactic acid, 2-ethylhexyl ester] | 122 | 1.2 |  |  | 
1.0825 | 150.59 | 962.75 | OCC1CCCO1 (centres unmarked) [Tetrahydrofurfyl Alcohol] | 178 | 1.054 | 75 | Miscible | Viscosity [2]: 5.4046 cPa; Aux. by HPLC ([4]; 6th composition of Table 7, auxin added 0.4958%): 0.497%; Cyt. by HPLC ([4]; 6th composition of Table 7, cytokinin added 0.094%): 0.108%; Gib. by HPLC ([4]; 6th composition of Table 7, gibberellin added 0.0804%): 0.081%; Density [5]: 1.0548 g/mL
 |  |  | CC(O)CO (centres unmarked) [Propylene Glycol, reference compound] | 205 | 1.12 | 138 | Soluble | Solubility ([1]; listed as propylene glycol): soluble
 |  |  | CCOC(C)=O [Ethyl acetate] | 77 |  | −4.4 | Miscible | 

Molecule | Post: Density [3] [g/mL] | Post: Viscosity [3] [cPa] | Pre: Viscosity [3] [cPa] | Boiling Point [1] [C. °] | Density [1] [g/mL] | Flash Point [1] [C. °] | Solubility [1] | also measured
CCCCOCCO [Ethylene glycol butyl ether, 2-butoxyl ethanol] | 1.0263 | 69.69 | 138.49 | 171 | 0.902 | 67 |  | 
COCC(C)O (centres unmarked) [1-methoxy-2-propanol] | 1.0440 | 106.18 | 1764.63 | 118 | 0.916 | 34 |  | change of viscosity over the two-week period [3]: decreasing the most; Aux. by HPLC ([4]; 1st composition of Table 7, auxin added 0.6596%): 0.674%; Cyt. by HPLC ([4]; 1st composition of Table 7, cytokinin added 0.0614%): 0.072%; Gib. by HPLC ([4]; 1st composition of Table 7, gibberellin added 0.0460%): 0.046%; Aux. by HPLC ([4]; 2nd composition of Table 7, auxin added 0.6136%): 0.630%; Cyt. by HPLC ([4]; 2nd composition of Table 7, cytokinin added 0.1074%): 0.126%; Gib. by HPLC ([4]; 2nd composition of Table 7, gibberellin added 0.0460%): 0.045%; Aux. by HPLC ([4]; 3rd composition of Table 7, auxin added 0.5215%): 0.531%; Cyt. by HPLC ([4]; 3rd composition of Table 7, cytokinin added 0.1534%): 0.178%; Gib. by HPLC ([4]; 3rd composition of Table 7, gibberellin added 0.0920%): 0.088%; Aux. by HPLC ([4]; 4th composition of Table 7, auxin added 0.4985%): 0.502%; Cyt. by HPLC ([4]; 4th composition of Table 7, cytokinin added 0.1994%): 0.235%; Gib. by HPLC ([4]; 4th composition of Table 7, gibberellin added 0.0690%): 0.069%; Aux. by HPLC ([4]; 5th composition of Table 7, auxin added 0.5675%): 0.579%; Cyt. by HPLC ([4]; 5th composition of Table 7, cytokinin added 0.1074%): 0.130%; Gib. by HPLC ([4]; 5th composition of Table 7, gibberellin added 0.0920%): 0.089%
